Measured values reported in patent publication US6846845B2, “Heat shock protein inducer” (Eisai Co., Ltd., priority 2002, dated 2005).

Test system: isolated perfused heart
Experiment: Isolated perfused heart experiments (Langendorff, 20 min no-flow global ischemia, 30 min reperfusion), Example 2
Assay type: in vivo, rat
Procedure: Male Sprague-Dawley rats (220-250 g) were used. GGA, as an emulsion with 5% gum arabic and 0.008% tocopherol, was given orally at a dose of 200 mg/kg. Rats were classified into 4 groups. FIG. 7 is a diagrammatic representation of experimental protocol. […] Twenty-four hours after oral administration of GGA or vehicle, rats were anesthetized (sodium pentobarbital, 50 mg/kg IP) and heparinized (500 IU/kg IP). Hearts were excised, immediately frozen in liquid nitrogen, and stored at −70° C. until use for Western blot analysis (n=4 for each group). To examine the cardiac function during ischemia and reperfusion, hearts of each group were prepared for isolated perfused experiments using Langendorff apparatus (n=7-9 for each group, FIG. 7).
Twenty-four hours after administration-of 200 mg/kg of GGA or vehicle, rats of 4 groups were heparinized (500 IU/kg, IP) and anesthetized with sodium pentobarbital (50 mg/kg, IP). Each heart was isolated and perfused retrogradely using the Langendorff method with Krebs-Henseleit buffer (pH 7.4, [in mM] 118 NaCl, 4.7 KCl, 2.5 CaCl2, 1.2 MgSO4, 1.2 KH2PO4, 25.0 Na2HCO3, 11.0 glucose) equilibrated with 95% O2-5% CO2 gas mixture at 36.5° C. at a constant pressure of 75 mm Hg. A water-filled latex balloon was inserted through the mitral orifice into the left ventricle (LV) and the LV end-diastolic pressure (LVEDP) was adjusted to 0-5 mm Hg. During the initial 10 min of constant pressure perfusion, the perfusion flow rate was determined for each heart, which was then perfused at a determined perfusion rate using a microtube pump while the heart was covered with water-jacketed glassware and the relative humidity maintained at 90% or more. Normothermic no-flow global ischemia was initiated for 20 min, followed by reperfusion for 30 min. The coronary effluent during the 30 min of reperfusion period was collected for measurement of creatine kinase content (released CK).
LV pressure was monitored using a pressure transducer to obtain the peak positive and negative first derivatives of LV pressure (dP/dtmax and dP/dtmin). […] Coronary perfusion pressure (CPP) was defined as the hydraulic pressure measured at the level of aortic cannulation. LV pressure, CPP and electrocardiogram were continuously recorded on a polygraph recorder (WS-681G, Nihon Kohden) and stored on a PCM data recorder (RD-111T, TEAC) for later analysis.
Data are expressed as mean ±SEM. Serial changes in LVDP, LVEDP, CPP, and dP/dt were analyzed by two-way analysis of variance (ANOVA) followed by the Bonferroni/Dunn test, unless otherwise specified. Comparisons among groups with respect to the hemodynamic parameters at baseline and the ratio of released CK to ventricular weight were analyzed by one-way ANOVA followed by the Bonferroni/Dunn test. […]

## CC(=O)CCC=C(C)CCC=C(C)CCC=C(C)CCC=C(C)C [GGA, 6, 10, 14, 18-tetramethyl-5,9, 13, 17-nonadecatetraen-2-one]
30-min reperfusion period after 20 min ischemia, FIG. 12
  released creatine kinase (CK) relative to ventricular weight: lower
20 min no-flow global ischemia, 30 min reperfusion, FIG. 11
  recovery of LVDP, LVEDP and dP/dt on reperfusion versus CNT group: greater
